Data taken from patent publication US8975277B2, “2,3-dihydrofuro[2,3-c]pyridin-2-ylpiperidine derivatives” (Boehringer Ingelheim International GmbH, priority 2012, dated 2015).

Biological target: T1, human GPR119 (Homo sapiens, UniProt Q8TDV5)
T1 construct: expression vector for human GPR119 cDNA (Acc. No. NP_848566); expressed in transfected cells
T1 sequence (Q8TDV5 1-335): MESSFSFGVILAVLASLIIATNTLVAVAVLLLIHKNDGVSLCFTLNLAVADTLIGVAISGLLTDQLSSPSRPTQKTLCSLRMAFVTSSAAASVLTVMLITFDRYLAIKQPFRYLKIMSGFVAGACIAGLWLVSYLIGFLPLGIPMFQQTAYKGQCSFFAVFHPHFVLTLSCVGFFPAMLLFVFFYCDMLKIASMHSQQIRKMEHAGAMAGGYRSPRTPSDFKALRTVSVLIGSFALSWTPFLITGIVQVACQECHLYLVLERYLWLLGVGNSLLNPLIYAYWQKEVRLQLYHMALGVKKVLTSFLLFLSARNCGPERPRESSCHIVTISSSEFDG
Assay: AlphaScreen cAMP assay, activation of GPR119 in MIN6 cells stably transfected with human GPR119
Type: cell-based
Conditions: Min-6/hGPR119 cells, intracellular cAMP, 45 minutes incubation at room temperature
Method: The compounds of the invention modulate the activity of the G-protein-coupled receptor GPR119. The effect of the compounds on the activation of GPR119 and on the stimulation of intracellular cAMP concentration is determined using the AlphaScreen cAMP Assay Kit (Cat.No.#6760625R) made by Perkin Elmer.
MIN6 cells [Miyazaki J et al., Endocrinology. 1990 July; 127(1):126-32] are stably transfected with an expression vector for human GPR119 cDNA (Acc. No. NP_848566). Min-6/hGPR119 cells are cultured in DMEM, 10% FBS, 50 μM β-mercaptoethanol, 0.3 mg/mL Geniticin, 2 mM GlutaMAX at 37° C., 5% CO2. For the assay, the cells are seeded in Optiplates (white, 384-well, 160W-barcoded, TC, sterile with lid, Cat.No.#6007688 (Perkin Elmer); 10000 cells/well; 50 μL). The plates covered with lids are then incubated for 24 hours at 37° C., 5% CO2. After the medium is aspirated from the wells completely, 10 μl of the test compound are added, the compounds are diluted using stimulating buffer (140 mM NaCl, 3.6 mM KCl, 0.5 mM NaH2PO4, 0.5 mM MgSO4, 1.5 mM CaCl2, 10 mM Hepes, 5 mM NaHCO3; pH 7.4. 0.5 mM IBMX and 0.1% BSA, the final DMSO concentration is 1%). After 45 minutes incubation at room temperature (approx. 20° C.), the cAMP concentrations are determined using the AlphaScreen cAMP Assay Kit (Cat.No.#6760625R from PerkinElmer).

SMILES	EC50 [nM]
C[C@H](OC(=O)N1CCC([C@H]2Cc3cc(-c4ccc(S(C)(=O)=O)cc4)ncc3O2)CC1)C(F)(F)F [Example 1, (S)-4-[(R)-5-(4-Methanesulfonyl-phenyl)-2,3-dihydro-furo[2,3-c]pyridin-2-yl]-piperidine-1-carboxylic acid 2,2,2-trifluoro-1-methyl-ethyl ester]	5
C[C@@H](OC(=O)N1CCC([C@H]2Cc3cc(-c4ccc(S(C)(=O)=O)cc4)ncc3O2)CC1)C(F)(F)F [Example 2, (R)-4-[(R)-5-(4-Methanesulfonyl-phenyl)-2,3-dihydro-furo[2,3-c]pyridin-2-yl]-piperidine-1-carboxylic acid 2,2,2-trifluoro-1-methyl-ethyl ester]	6
C[C@@H](OC(=O)N1CCC([C@H]2Cc3cc(C4=CCN(S(C)(=O)=O)CC4)ncc3O2)CC1)C(F)(F)F [Example 3, (R)-4-[(R)-5-(1-Methanesulfonyl-1,2,3,6-tetrahydro-pyridin-4-yl)-2,3-dihydro-furo[2,3-c]pyridin-2-yl]-piperidine-1-carboxylic acid 2,2,2-trifluoro-1-methyl-ethyl ester]	6
C[C@H](OC(=O)N1CCC([C@H]2Cc3cc(C4=CCN(S(C)(=O)=O)CC4)ncc3O2)CC1)C(F)(F)F [Example 4, (S)-4-[(R)-5-(1-Methanesulfonyl-1,2,3,6-tetrahydro-pyridin-4-yl)-2,3-dihydro-furo[2,3-c]pyridin-2-yl]-piperidine-1-carboxylic acid 2,2,2-trifluoro-1-methyl-ethyl ester]	5
C[C@H](OC(=O)N1CCC([C@]2(C)Cc3cc(C4=CCN(S(C)(=O)=O)CC4)ncc3O2)CC1)C(F)(F)F [Example 5, (S)-4-[(S)-5-(1-Methanesulfonyl-1,2,3,6-tetrahydro-pyridin-4-yl)-2-methyl-2,3-dihydro-furo[2,3-c]pyridin-2-yl]-piperidine-1-carboxylic acid 2,2,2-trifluoro-1-methyl-ethyl ester]	109
C[C@@H](OC(=O)N1CCC([C@@]2(C)Cc3cc(C4=CCN(S(C)(=O)=O)CC4)ncc3O2)CC1)C(F)(F)F [Example 6, (R)-4-[(R)-5-(1-Methanesulfonyl-1,2,3,6-tetrahydro-pyridin-4-yl)-2-methyl-2,3-dihydro-furo[2,3-c]pyridin-2-yl]-piperidine-1-carboxylic acid 2,2,2-trifluoro-1-methyl-ethyl ester]	7
C[C@H](OC(=O)N1CCC([C@@]2(C)Cc3cc(C4=CCN(S(C)(=O)=O)CC4)ncc3O2)CC1)C(F)(F)F [Example 7, (S)-4-[(R)-5-(1-Methanesulfonyl-1,2,3,6-tetrahydro-pyridin-4-yl)-2-methyl-2,3-dihydro-furo[2,3-c]pyridin-2-yl]-piperidine-1-carboxylic acid 2,2,2-trifluoro-1-methyl-ethyl ester]	3
C[C@@H](OC(=O)N1CCC([C@@]2(C)Cc3cc(-c4ccc(S(C)(=O)=O)cc4)ncc3O2)CC1)C(F)(F)F [Example 8, (R)-4-[(R)-5-(4-Methanesulfonyl-phenyl)-2-methyl-2,3-dihydro-furo[2,3-c]pyridin-2-yl]-piperidine-1-carboxylic acid 2,2,2-trifluoro-1-methyl-ethyl ester]	4
C[C@H](OC(=O)N1CCC([C@@]2(C)Cc3cc(-c4ccc(S(C)(=O)=O)cc4)ncc3O2)CC1)C(F)(F)F [Example 9, (S)-4-[(R)-5-(4-Methanesulfonyl-phenyl)-2-methyl-2,3-dihydro-furo[2,3-c]pyridin-2-yl]-piperidine-1-carboxylic acid 2,2,2-trifluoro-1-methyl-ethyl ester]	1
